In US20220409629A1, “BENZODIAZEPINE DERIVATIVES FOR TREATING A RESPIRATORY SYNCYTIAL VIRUS (RSV) INFECTION” (priority 2019, published 2022):

What was measured:
RSV A2 = assay: RSV plaque reduction assay; type: cell-based, respiratory syncytial virus (RSV); settings: human respiratory syncytial virus, HepG2; Hep-G2 cells, RSV A2, mean of at least two experiments
Method: Compounds were subjected to RSV plaque reduction assays according to the following protocol.
Hep-G2 cells (ECACC, 85011430) were passaged in flasks and seeded in 24-well plates in DMEM containing antibiotics and supplemented with 10% FBS. During inoculation and subsequent incubation, cells were cultured in DMEM containing 2% FBS. 100 plaque forming unit/well of RSV (RSV A2 ECACC, 0709161v) was mixed with eight serial dilutions of compound. Subsequently, 100 μL of the virus/compound mixtures was added to confluent Hep-G2 cell monolayers. The cells and virus/compound mixtures were incubated at 37° C. in a humidified 5% CO2 incubator for 2 h prior to removal of the inoculum and addition of 1 mL of overlay (DMEM containing 2% FBS and 0.8% CMC) containing compound dilutions. The cells and were incubated at 37° C. in a humidified 5% CO2 incubator for 2 days.
Cells were washed with PBS before adding 75/25% v/v EtOH/MeOH, for 3 min. Fixative was removed and plates were washed with PBS. A pre-titrated amount of the primary antibody was added in 200 μL PBS/2% milk powder, and plates incubated for 90 min at 37° C. The plates were washed 3 times with PBS/0.05% Tween20 before addition of rabbit anti-goat horse radish peroxidase in 200 μL PBS/2% milk powder, and incubated for 1 h at 37° C. Following three wash steps with PBS/0.05% Tween20, 200 μL ready-to-use TrueBlue was added and plates were incubated at rt for 10-15 min before washing with water. After removal of water, plates were air-dried in the dark.
Plates were scanned and analysed using the Immunospot S6 Macro analyser, which is equipped with BioSpot analysis software for counting immunostained plaques (virospots). Plaque counts were used to calculate % infection relative to the mean of the plaque count in the virus control wells for RSV. The EC50 value was calculated as 50% reduction in signal, respectively, by interpolation of inhibition curves fitted with a 4-parameter nonlinear regression with a variable slope in Dotmatics. Plaque EC50 and cell toxicity CC50 values are a mean of at least two experiments and figures are rounded to whole units.

Cell cytotoxicity CC50 = type: cell-based; settings: human; mean of at least two experiments
[1] = Liver microsomal stability, rat; type: in vitro ADME; settings: pH 7.4; rat liver microsomes, 0.5 mg/mL protein, 1 μM compound, NADPH; >80% remaining at 45 min denoted >140; read-out: Liver Microsomal Stability: t1/2 (min); rat
Method: (§1) Compounds were subjected to the following assays to investigate liver microsomal stability, permeability and plasma protein binding.
(§2) Pooled liver microsomes were purchased from a reputable commercial supplier and stored at −80° C. prior to use. Microsomes (final protein concentration 0.5 mg/mL), 0.1 M phosphate buffer pH 7.4 and test compound (final substrate concentration 1 μM; final DMSO concentration 0.25%) were pre-incubated at 37° C. prior to the addition of NADPH (final concentration 1 mM) to initiate the reaction. The final incubation volume was 50 μL. A control incubation was included for each compound tested where 0.1 M phosphate buffer pH 7.4 was added instead of NADPH (minus NADPH). Two control compounds were included with each species. All incubations were performed singularly for each test compound. Each compound was incubated for 0, 5, 15, 30 and 45 min. The control (minus NADPH) was incubated for 45 min only. The reactions were stopped by transferring incubate into acetonitrile at the appropriate time points, in a 1:3 ratio. The termination plates are centrifuged at 3,000 rpm for 20 min at 4° C. to precipitate the protein. Following protein precipitation, the sample supernatants were combined in cassettes of up to 4 compounds, internal standard added, and samples analysed by LC-MS/MS. From a plot of ln peak area ratio (compound peak area/internal standard peak area) against time, the gradient of the line was determined. Subsequently, half-life (t1/2) and intrinsic clearance (CLint) were calculated.

[2] = Liver microsomal stability, dog; type: in vitro ADME; settings: pH 7.4; dog liver microsomes, 0.5 mg/mL protein, 1 μM compound, NADPH; >80% remaining at 45 min denoted >140; read-out: Liver Microsomal Stability: t1/2 (min); dog
Method: as §1, §2

[3] = Liver microsomal stability, human; type: in vitro ADME; settings: pH 7.4; human liver microsomes, 0.5 mg/mL protein, 1 μM compound, NADPH; >80% remaining at 45 min denoted >140; read-out: Liver Microsomal Stability: t1/2 (min); human
Method: as §1, §2

Compound	EC50 (RSV A2)	CC50 (Cell cytotoxicity CC50)	half-life [1]	half-life [2]	half-life [3]
CCn1ncc(C(=O)N[C@H]2N=C(c3ccccc3)c3ccccc3NC2=O)c1-c1ccc(NC)nc1F [Example 1, 1-Ethyl-5-[2-fluoro-6-(methylamino)pyridin-3-yl]-N-[(3S)-2-oxo-5-phenyl-1,3-dihydro-1,4-benzodiazepin-3-yl]pyrazole-4-carboxamide]	91 nM	> 25000 nM	24.4 min	11.1 min	48.1 min
CCNc1ccc(-c2c(C(=O)N[C@H]3N=C(c4ccccc4)c4ccccc4NC3=O)cnn2CC)c(F)n1 [Example 2, 1-Ethyl-5-[6-(ethylamino)-2-fluoropyridin-3-yl]-N-[(3S)-2-oxo-5-phenyl-1,3-dihydro-1,4-benzodiazepin-3-yl]pyrazole-4-carboxamide]	88 nM	> 25000 nM	30.3 min	23.9 min	44.4 min
CCn1ncc(C(=O)N[C@H]2N=C(c3ccccc3)c3ccccc3NC2=O)c1-c1ccc(NC2CCC2)nc1F [Example 5, 5-[6-(Cyclobutylamino)-2-fluoropyridin-3-yl]-1-ethyl-N-[(3S)-2-oxo-5-phenyl-1,3-dihydro-1,4-benzodiazepin-3-yl]pyrazole-4-carboxamide]	87 nM	> 25000 nM	47.4 min	45.7 min	50.1 min
CCn1ncc(C(=O)N[C@H]2N=C(c3ccccc3)c3ccccc3NC2=O)c1-c1ccc(NC2(C)CC2)nc1F [Example 6, 1-Ethyl-5-[2-fluoro-6-[(1-methylcyclopropyl)amino]pyridin-3-yl]-N-[(3S)-2-oxo-5-phenyl-1,3-dihydro-1,4-benzodiazepin-3-yl]pyrazole-4-carboxamide]	32 nM	> 25000 nM	31.5 min	72.5 min	23 min
CCn1ncc(C(=O)N[C@H]2N=C(c3ccccc3)c3ccccc3NC2=O)c1-c1ncc(NC2CC2)cc1F [Example 7, 5-[5-(Cyclopropylamino)-3-fluoropyridin-2-yl]-1-ethyl-N-[(3S)-2-oxo-5-phenyl-1,3-dihydro-1,4-benzodiazepin-3-yl]pyrazole-4-carboxamide]	69 nM	> 25000 nM	595 min	85.8 min	97 min
CCn1ncc(C(=O)N[C@H]2N=C(c3ccccc3)c3ccccc3NC2=O)c1-c1ncc(NC(C)C)cc1F [Example 8, 1-Ethyl-5-[3-fluoro-5-(propan-2-ylamino)pyridin-2-yl]-N-[(3S)-2-oxo-5-phenyl-1,3-dihydro-1,4-benzodiazepin-3-yl]pyrazole-4-carboxamide]	32 nM	> 25000 nM	> 140 min	104 min	193 min
CCn1ncc(C(=O)N[C@H]2N=C(c3ccccc3)c3ccccc3NC2=O)c1-c1ccc(NC(C)C)cc1F [Example 9, 1-Ethyl-5-[2-fluoro-4-(propan-2-ylamino)phenyl]-N-[(3S)-2-oxo-5-phenyl-1,3-dihydro-1,4-benzodiazepin-3-yl]pyrazole-4-carboxamide]	73 nM	> 25000 nM	141 min	89.1 min	220 min
CCNc1ccc(-c2c(C(=O)N[C@H]3N=C(c4ccccc4)c4ccccc4NC3=O)c(C)nn2CC)c(F)n1 [Example 10, 1-Ethyl-5-[6-(ethylamino)-2-fluoropyridin-3-yl]-3-methyl-N-[(3S)-2-oxo-5-phenyl-1,3-dihydro-1,4-benzodiazepin-3-yl]pyrazole-4-carboxamide]	89 nM	> 25000 nM	20.2 min	85.8 min	48.1 min
CCn1ncc(C(=O)N[C@H]2N=C(c3ccccc3)c3cccc(F)c3NC2=O)c1-c1ncc(NC2CC2)cc1F [Example 12, 5-[5-(Cyclopropylamino)-3-fluoropyridin-2-yl]-1-ethyl-N-[(3S)-9-fluoro-2-oxo-5-phenyl-1,3-dihydro-1,4-benzodiazepin-3-yl]pyrazole-4-carboxamide]	45 nM	> 25000 nM	51.1 min	68.5 min	193 min
CC(C)Nc1ccc(-c2c(C(=O)N[C@H]3N=C(c4ccccc4)c4cccc(F)c4NC3=O)cnn2C2COC2)c(F)n1 [Example 41, N-[(3S)-9-Fluoro-2-oxo-5-phenyl-1,3-dihydro-1,4-benzodiazepin-3-yl]-5-[2-fluoro-6-(propan-2-ylamino)pyridin-3-yl]-1-(oxetan-3-yl)pyrazole-4-carboxamide]	91 nM	> 25000 nM			
CC(C)c1ccc(-c2c(C(=O)N[C@H]3N=C(c4ccccc4)c4cccc(F)c4NC3=O)cnn2C2CCOCC2)c(F)c1 [Example 45, 5-(2-Fluoro-4-propan-2-ylphenyl)-1-(oxan-4-yl)-N-[(3S)-9-fluoro-2-oxo-5-phenyl-1,3-dihydro-1,4-benzodiazepin-3-yl]pyrazole-4-carboxamide]	38 nM	> 25000 nM			
CCc1ccc(-c2c(C(=O)N[C@H]3N=C(c4ccccc4)c4ccccc4NC3=O)cnn2C2CCOCC2)c(F)c1 [Example 46, 5-(4-Ethyl-2-fluorophenyl)-1-(oxan-4-yl)-N-[(3S)-2-oxo-5-phenyl-1,3-dihydro-1,4-benzodiazepin-3-yl]pyrazole-4-carboxamide]	34 nM	> 25000 nM			
CCc1ccc(-c2c(C(=O)N[C@H]3N=C(c4ccccc4)c4ccccc4NC3=O)cnn2C2CCOCC2)c(F)n1 [Example 52, 5-(6-Ethyl-2-fluoropyridin-3-yl)-1-(oxan-4-yl)-N-[(3S)-2-oxo-5-phenyl-1,3-dihydro-1,4-benzodiazepin-3-yl]pyrazole-4-carboxamide]	87 nM	> 25000 nM			
CCOc1nn(CC)c(-c2ccccc2F)c1C(=O)N[C@H]1N=C(c2ccccc2)c2ccccc2NC1=O [Example 54, 3-Ethoxy-1-ethyl-5-(2-fluorophenyl)-N-[(3S)-2-oxo-5-phenyl-1,3-dihydro-1,4-benzodiazepin-3-yl]pyrazole-4-carboxamide]	51 nM	> 25000 nM			
O=C(N[C@H]1N=C(c2ccccc2)c2cccc(F)c2NC1=O)c1cnn(C2CCOCC2)c1-c1ccc(NC2CC2)nc1 [Example 56, 5-[6-(Cyclopropylamino)pyridin-3-yl]-1-(oxan-4-yl)-N-[(3S)-9-fluoro-2-oxo-5-phenyl-1,3-dihydro-1,4-benzodiazepin-3-yl]pyrazole-4-carboxamide]	78 nM	> 25000 nM			
CC(C)Nc1ccc(-c2c(C(=O)N[C@H]3N=C(c4ccccc4)c4cccc(F)c4NC3=O)cnn2C2CCOCC2)cn1 [Example 58, 1-(Oxan-4-yl)-5-[6-(propan-2-ylamino)pyridin-3-yl]-N-[(3S)-9-fluoro-2-oxo-5-phenyl-1,3-dihydro-1,4-benzodiazepin-3-yl]pyrazole-4-carboxamide]	99 nM	> 25000 nM			
CCc1ccc(-c2c(C(=O)N[C@H]3N=C(c4ccccc4)c4cccc(F)c4NC3=O)cnn2C2CCN(C)CC2)c(F)c1 [Example 59, 5-(4-Ethyl-2-fluorophenyl)-1-(1-methylpiperidin-4-yl)-N-[(3S)-9-fluoro-2-oxo-5-phenyl-1,3-dihydro-1,4-benzodiazepin-3-yl]pyrazole-4-carboxamide]	107 nM	15200 nM			
